Results as given in publication PMC4979471 (Cell Death Discovery, 2015).
Read-outs that look alike come from different tables or passages of the source.

Experiments:
Test in all cases: Kinase selectivity, P33-radiolabeled assay
Type in all cases: biochemical
Conditions in all cases: 10 μM ATP
[1] = target: T1, EPHB1 (Homo sapiens, UniProt P54762)
T1 construct: purchased Reaction Biology Corp
T1 sequence (P54762 18-984): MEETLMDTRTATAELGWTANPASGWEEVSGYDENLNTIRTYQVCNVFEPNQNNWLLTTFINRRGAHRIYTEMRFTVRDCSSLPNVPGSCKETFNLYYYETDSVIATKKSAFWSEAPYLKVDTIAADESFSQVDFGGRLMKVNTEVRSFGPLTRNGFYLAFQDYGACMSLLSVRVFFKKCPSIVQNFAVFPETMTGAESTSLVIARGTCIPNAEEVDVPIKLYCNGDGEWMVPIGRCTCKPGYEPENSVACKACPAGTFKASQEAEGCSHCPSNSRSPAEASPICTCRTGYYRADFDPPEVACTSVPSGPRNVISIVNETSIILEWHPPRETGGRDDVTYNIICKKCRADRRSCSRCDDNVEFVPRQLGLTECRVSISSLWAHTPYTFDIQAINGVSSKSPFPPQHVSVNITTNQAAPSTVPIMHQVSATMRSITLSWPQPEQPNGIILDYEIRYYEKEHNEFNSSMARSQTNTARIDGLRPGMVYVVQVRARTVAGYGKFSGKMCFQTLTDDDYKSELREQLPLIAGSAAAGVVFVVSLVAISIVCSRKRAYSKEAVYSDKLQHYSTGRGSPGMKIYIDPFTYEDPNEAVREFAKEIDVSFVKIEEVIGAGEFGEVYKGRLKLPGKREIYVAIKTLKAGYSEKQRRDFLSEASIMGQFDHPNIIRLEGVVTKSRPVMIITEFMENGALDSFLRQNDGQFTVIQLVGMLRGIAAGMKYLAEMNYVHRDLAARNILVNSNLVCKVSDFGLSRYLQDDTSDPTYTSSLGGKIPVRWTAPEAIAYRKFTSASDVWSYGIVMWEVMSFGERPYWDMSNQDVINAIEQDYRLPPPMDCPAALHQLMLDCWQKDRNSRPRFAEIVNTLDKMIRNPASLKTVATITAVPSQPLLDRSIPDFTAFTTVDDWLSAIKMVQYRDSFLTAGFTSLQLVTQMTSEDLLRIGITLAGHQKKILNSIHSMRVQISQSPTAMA
How it was run: (§1)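 Values show % enzyme activity normalised to DMSO vehicle. They come from one 10 μM compound concentration run twice, at an ATP level of 10 μM.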

[2] = target: T2, LKB1 (Homo sapiens, UniProt Q15831)
T2 construct: purchased Reaction Biology Corp
T2 sequence (Q15831 1-433): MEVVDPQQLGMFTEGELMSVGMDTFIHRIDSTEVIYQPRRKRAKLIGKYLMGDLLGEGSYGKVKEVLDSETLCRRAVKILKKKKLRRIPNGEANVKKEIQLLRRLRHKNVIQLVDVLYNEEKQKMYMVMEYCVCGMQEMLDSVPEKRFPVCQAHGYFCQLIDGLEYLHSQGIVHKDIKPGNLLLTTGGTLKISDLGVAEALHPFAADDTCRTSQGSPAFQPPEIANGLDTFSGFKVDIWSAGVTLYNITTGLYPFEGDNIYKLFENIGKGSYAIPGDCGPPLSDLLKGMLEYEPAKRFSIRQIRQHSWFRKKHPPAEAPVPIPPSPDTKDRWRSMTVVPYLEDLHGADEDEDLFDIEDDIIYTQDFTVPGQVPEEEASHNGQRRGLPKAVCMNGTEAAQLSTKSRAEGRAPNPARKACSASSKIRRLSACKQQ
T2 sequence (Q7RTN6 1-431 partner): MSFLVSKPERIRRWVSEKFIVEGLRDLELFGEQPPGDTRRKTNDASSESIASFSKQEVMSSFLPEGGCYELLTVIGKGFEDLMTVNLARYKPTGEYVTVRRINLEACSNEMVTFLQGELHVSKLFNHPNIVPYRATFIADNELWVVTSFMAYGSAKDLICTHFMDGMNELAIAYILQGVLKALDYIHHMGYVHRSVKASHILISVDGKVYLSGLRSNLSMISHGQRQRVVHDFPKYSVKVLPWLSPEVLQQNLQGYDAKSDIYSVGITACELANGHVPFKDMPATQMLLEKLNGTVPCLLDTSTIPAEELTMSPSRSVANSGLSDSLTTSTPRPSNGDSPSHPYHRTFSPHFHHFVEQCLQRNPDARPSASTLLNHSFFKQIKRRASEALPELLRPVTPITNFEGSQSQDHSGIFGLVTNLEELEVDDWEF
T2 sequence (Q9Y376 1-341 partner): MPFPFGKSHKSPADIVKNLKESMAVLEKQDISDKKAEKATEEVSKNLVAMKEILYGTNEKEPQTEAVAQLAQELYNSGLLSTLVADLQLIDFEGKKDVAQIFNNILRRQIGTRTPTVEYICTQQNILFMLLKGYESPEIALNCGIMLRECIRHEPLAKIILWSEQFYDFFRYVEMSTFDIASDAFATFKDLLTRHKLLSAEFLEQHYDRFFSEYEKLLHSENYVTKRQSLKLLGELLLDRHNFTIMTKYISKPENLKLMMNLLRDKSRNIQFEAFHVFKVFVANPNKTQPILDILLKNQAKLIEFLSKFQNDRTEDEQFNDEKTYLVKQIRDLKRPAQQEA
How it was run: as §1

[3] = target: T3, ERK7/MAPK15 (Homo sapiens, UniProt Q8TD08)
T3 construct: purchased Reaction Biology Corp
T3 sequence (Q8TD08 1-544): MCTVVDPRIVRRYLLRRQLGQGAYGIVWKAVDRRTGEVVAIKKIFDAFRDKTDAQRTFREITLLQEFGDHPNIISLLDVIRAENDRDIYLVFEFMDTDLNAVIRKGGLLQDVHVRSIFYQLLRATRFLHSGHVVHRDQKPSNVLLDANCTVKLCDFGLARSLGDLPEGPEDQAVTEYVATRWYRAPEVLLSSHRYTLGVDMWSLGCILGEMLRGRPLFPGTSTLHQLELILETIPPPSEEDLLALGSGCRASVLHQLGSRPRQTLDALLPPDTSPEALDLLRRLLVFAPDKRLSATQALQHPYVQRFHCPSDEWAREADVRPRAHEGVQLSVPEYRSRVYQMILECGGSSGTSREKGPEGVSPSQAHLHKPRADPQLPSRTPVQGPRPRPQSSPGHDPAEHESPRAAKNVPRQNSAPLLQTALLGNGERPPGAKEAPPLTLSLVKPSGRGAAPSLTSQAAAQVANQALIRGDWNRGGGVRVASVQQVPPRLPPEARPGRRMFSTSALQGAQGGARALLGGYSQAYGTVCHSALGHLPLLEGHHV
How it was run: as §1

[4] = read-out: % Enzyme Activity (relative to DMSO controls) AVG
[5] = read-out: % Enzyme Activity (relative to DMSO controls) Data 1
[6] = read-out: % Enzyme Activity (relative to DMSO controls) Data 2

## CC(C)(C)C(=O)N1N=CC[C@H]1c1ccccc1 [GSK′963]
[1]; [4]
  remaining activity at 10 µM: 99.4%
[1]; [5]
  remaining activity at 10 µM: 98.8%
[1]; [6]
  remaining activity at 10 µM: 100%
[2]; [4]
  remaining activity at 10 µM: 105%
[2]; [5]
  remaining activity at 10 µM: 105%
[2]; [6]
  remaining activity at 10 µM: 106%
[3]; [4]
  remaining activity at 10 µM: 112%
[3]; [5]
  remaining activity at 10 µM: 113%
[3]; [6]
  remaining activity at 10 µM: 111%
